Here are results for four molecules from BindingDB's records for doi:10.1016/j.chembiol.2005.02.007 (Stanford University, 2005).

The target in this assay is T1, Protein-glutamine gamma-glutamyltransferase 2 (Homo sapiens, UniProt P21980).
T1 sequence (P21980 whole entry): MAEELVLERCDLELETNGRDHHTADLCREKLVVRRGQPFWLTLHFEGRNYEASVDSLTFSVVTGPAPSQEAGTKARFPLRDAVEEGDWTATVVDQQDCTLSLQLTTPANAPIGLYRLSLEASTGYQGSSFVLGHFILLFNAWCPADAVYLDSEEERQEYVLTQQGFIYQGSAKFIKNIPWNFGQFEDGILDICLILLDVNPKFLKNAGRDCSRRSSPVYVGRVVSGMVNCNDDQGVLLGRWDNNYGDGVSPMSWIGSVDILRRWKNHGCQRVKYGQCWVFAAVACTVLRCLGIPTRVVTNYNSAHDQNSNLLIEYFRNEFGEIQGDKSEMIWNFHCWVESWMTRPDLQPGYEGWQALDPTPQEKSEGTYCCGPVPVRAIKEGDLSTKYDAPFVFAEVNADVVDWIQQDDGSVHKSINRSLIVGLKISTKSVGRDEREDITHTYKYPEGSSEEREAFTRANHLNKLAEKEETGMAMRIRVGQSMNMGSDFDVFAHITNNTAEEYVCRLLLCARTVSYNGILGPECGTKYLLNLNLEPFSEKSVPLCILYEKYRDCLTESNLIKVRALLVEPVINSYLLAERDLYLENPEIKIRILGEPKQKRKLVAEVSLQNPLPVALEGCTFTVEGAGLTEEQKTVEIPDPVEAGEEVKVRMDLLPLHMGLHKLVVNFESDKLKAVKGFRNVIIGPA
The assay can be described thus: TG Inhibition Assay. Particulars: pH 7.2.

Usually Ki stands for a measure of affinity in units of concentration, obtained from inhibition or displacement. The low end stands for a stronger hold on the target, the high end for a looser hold on the target.

SMILES strings stand for the structures.

Source text: Recombinant of human TG2 was expressed in E.coli and purified to >90% homogeneity.

As for `O=C(N[C@@H](Cc1c[nH]c2ccc(O)cc12)C(=O)NCC1CC(Br)=NO1)OCc1ccccc1` (some centres undefined) [Dihydroisoxazole, 1f], the Ki was found to be 310 µM.

The molecule `O=C(N[C@@H](Cc1ccccc1)C(=O)NCC1CC(Br)=NO1)OCCc1ccccc1` (some centres undefined) [Dihydroisoxazole, 3d] yielded a Ki of 61 µM.

`O=C(N[C@@H](Cc1ccccc1)C(=O)NCC1CC(Br)=NO1)Oc1ccc2ccccc2c1` (some centres undefined) [Dihydroisoxazole, 3e] displayed a Ki of 43 µM.

In turn, `O=C(N[C@@H](Cc1ccccc1)C(=O)NCC1CC(Br)=NO1)OCC1=Cc2ccccc2S1(=O)=O` (some centres undefined) [Dihydroisoxazole, 3f] gave a Ki of 87 µM.
